Ten molecules from ChEMBL document CHEMBL1201862, “PubChem BioAssay data set” (2004) can be followed below.

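Step 1: Grow cells in 96-well plates. Step 2: Expose to compound for 48 hours at 5 concentrations. Step 3: Interpolate endpoints linearly; if unreached, use highest concentration. Here, GI50 denotes the concentration required for 50% inhibition of growth.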 Calls of active or inactive are those of the source. No stated cut-off is given here; in the data, active = GI50 up to about 1.1 µM and inactive = higher.

Some test systems named below: A498; A549; ACHN; CAKI-1; DU-145; EKVX; HOP-62; LOX IMVI; OVCAR-3; OVCAR-8; PC-3; RPMI-8226; SK-MEL-2; SNB-19; SR; SW-620; T47D; TK-10; UACC-257; UACC-62.
Holding throughout (test): inhibition of tumour cell growth, NCI panel, 48 h

On to `[N-]=[N+]=CC(=O)COC(=O)c1ccccc1`, for which the GI50 in the assay with A498 was > 100 µM (inactive); with A549 it was 74.1 µM (inactive); with ACHN, > 100 µM (inactive); in the assay with CAKI-1 it was > 100 µM (inactive); in the assay on DU-145, > 100 µM (inactive); in the assay with EKVX it was > 100 µM (inactive). Further, the GI50 in the assay on HOP-62 was > 100 µM (inactive); in the assay with LOX IMVI, > 100 µM (inactive); in the assay with OVCAR-3, > 100 µM (inactive); in the assay on OVCAR-8 it was > 100 µM (inactive); in the assay with PC-3, > 100 µM (inactive); with RPMI-8226 it was 74.1 µM (inactive). The GI50 was > 100 µM (inactive) with SK-MEL-2; > 100 µM (inactive) with SNB-19; 74.6 µM (inactive) with SR; > 100 µM (inactive) in the assay on SW-620; > 100 µM (inactive) with T47D; > 100 µM (inactive) in the assay on TK-10. Moreover, the GI50 in the assay on UACC-257 and in the assay with UACC-62 was > 100 µM (inactive) each time.
As to `CC(=O)OC1=CC2(OC(C)=O)CC(C)(C)C1C1C(=O)C=CC(=O)C12` (stereo not given), the GI50 was 72.8 µM (inactive) in the assay with A498; > 100 µM (inactive) with A549; 20.1 µM (inactive) in the assay with ACHN; > 63.5 µM (inactive) in the assay with CAKI-1; > 100 µM (inactive) in the assay with DU-145; > 68.9 µM (inactive) in the assay on EKVX. The GI50 in the assay with HOP-62 is > 80.9 µM (inactive); with LOX IMVI it was > 42.1 µM (inactive); in the assay on OVCAR-3, > 66.7 µM (inactive); in the assay with OVCAR-8, > 58.2 µM (inactive); with PC-3, 57.8 µM (inactive); with RPMI-8226 it was > 66.8 µM (inactive). For the same molecule, the GI50 with SK-MEL-2 was > 100 µM (inactive); with SNB-19, > 100 µM (inactive); with SR it was > 64.3 µM (inactive); in the assay with SW-620, > 65 µM (inactive); in the assay on T47D, 49.4 µM (inactive); in the assay on TK-10 it was > 100 µM (inactive). Besides, the GI50 with UACC-257 was > 100 µM (inactive); with UACC-62, 15.7 µM (inactive).
As for `COc1ccc2c(c1)c(=O)c1c(NCCN(C)C)ccc3c(=O)n(CCN(C)C)c(=O)n2c31`, the GI50 is 0.211 µM (active) in the assay on A498; 0.0367 µM (active) in the assay with A549; 0.0138 µM (active) in the assay with ACHN; 0.0283 µM (active) with CAKI-1; 0.0883 µM (active) with DU-145; 0.124 µM (active) with EKVX. Further, the GI50 is 0.0711 µM (active) in the assay with HOP-62; 0.104 µM (active) in the assay with LOX IMVI; 0.182 µM (active) in the assay with OVCAR-3; 0.0601 µM (active) in the assay on OVCAR-8; 0.0925 µM (active) in the assay with PC-3; 0.0323 µM (active) in the assay on RPMI-8226. Moreover, the GI50 in the assay on SK-MEL-2 was 0.182 µM (active); in the assay on SNB-19 it was 0.206 µM (active); in the assay with SR, < 0.01 µM (active); with SW-620, < 0.0105 µM (active); in the assay on T47D, 0.372 µM (active); in the assay on TK-10 it was 0.141 µM (active). Moreover, the results for the GI50 in the assay on UACC-257 and with UACC-62 were 0.166 µM (active) and 0.156 µM (active), respectively.
`COC(=O)/C=C1/OC(c2ccc(C)cc2)=C(Cl)C1=O`: the GI50 in the assay on A498 is 17.9 µM (inactive); in the assay on A549, 20.1 µM (inactive); in the assay with ACHN it was 16.7 µM (inactive); in the assay on CAKI-1, 16 µM (inactive); in the assay with DU-145, 17.7 µM (inactive); in the assay on EKVX, 21.3 µM (inactive). The GI50 in the assay with HOP-62 was 19.9 µM (inactive); in the assay with LOX IMVI, 9.2 µM (inactive); with OVCAR-3 it was 12.4 µM (inactive); with OVCAR-8, 16.9 µM (inactive); in the assay on PC-3, 13.8 µM (inactive); in the assay on RPMI-8226, 3.18 µM (inactive). The GI50 with SK-MEL-2 is 16.7 µM (inactive); with SNB-19, 22.2 µM (inactive); with SR, 0.489 µM (active); with SW-620, 10.7 µM (inactive); in the assay on T47D it was 15.3 µM (inactive); in the assay on TK-10, 20.5 µM (inactive). The figures for the GI50 in the assay on UACC-257 and in the assay on UACC-62 were 20.3 µM (inactive) and 17.1 µM (inactive), respectively.
As to `COC(=O)C1CC23C=CCN4CC(C2C)C2(c5ccccc5NC12)C43` (stereo not given), the GI50 in the assay with A498, in the assay with A549, in the assay with ACHN, in the assay with CAKI-1, in the assay with DU-145 and in the assay on EKVX was > 100 µM (inactive) throughout. In addition, the GI50 with HOP-62, in the assay on LOX IMVI, in the assay with OVCAR-3, with OVCAR-8, in the assay on PC-3 and in the assay with RPMI-8226 was > 100 µM (inactive) throughout. Moreover, the GI50 in the assay on SK-MEL-2, in the assay with SNB-19, in the assay with SR, with SW-620, in the assay with T47D and in the assay on TK-10 was > 100 µM (inactive) throughout. Besides, the GI50 with UACC-257 and in the assay on UACC-62 was > 100 µM (inactive) throughout.
As for `CC(=O)Nc1ccc(S(=O)(=O)/N=C2\C=CC(=O)c3ccccc32)cc1`, the GI50 in the assay with A498 was 10.3 µM (inactive); with A549 it was 9.98 µM (inactive); in the assay with ACHN, 7.35 µM (inactive); in the assay on CAKI-1 it was 17.3 µM (inactive); with DU-145, 7.4 µM (inactive); with EKVX it was 6 µM (inactive). The GI50 in the assay with HOP-62 was 8.83 µM (inactive); in the assay with LOX IMVI, 2.04 µM (inactive); in the assay on OVCAR-3, 2.45 µM (inactive); in the assay with OVCAR-8 it was 2.8 µM (inactive); in the assay with PC-3, 3.28 µM (inactive); in the assay on RPMI-8226, 4.56 µM (inactive). The GI50 with SK-MEL-2 was 14.3 µM (inactive); with SNB-19 it was 11.6 µM (inactive); in the assay on SR it was 2.25 µM (inactive); in the assay with SW-620, 6.62 µM (inactive); in the assay on T47D, 8.17 µM (inactive); in the assay on TK-10, 19.9 µM (inactive). Moreover, the GI50 in the assay with UACC-257 is 6.22 µM (inactive); in the assay with UACC-62 it was 5.51 µM (inactive).
Consider `CCOC(CN(C)C(=S)Nc1cccc2ccccc12)OCC`, for which the GI50 in the assay with A498 is 6.95 µM (inactive); with A549, > 10 µM (inactive); with ACHN it was > 10 µM (inactive); in the assay with CAKI-1, > 10 µM (inactive); in the assay with DU-145, > 10 µM (inactive); in the assay on EKVX it was > 10 µM (inactive). For the same molecule, the GI50 in the assay with HOP-62, in the assay with LOX IMVI, in the assay on OVCAR-3, in the assay on OVCAR-8, with PC-3 and in the assay on RPMI-8226 was > 10 µM (inactive) in each case. Also, the GI50 in the assay with SK-MEL-2, with SNB-19, with SR, in the assay on SW-620, with T47D and with TK-10 was > 10 µM (inactive) each time. In addition, the GI50 in the assay with UACC-257 and in the assay on UACC-62 was > 10 µM (inactive) in each case.
As for `Cc1c(CCCl)c(N=[N+]=[N-])n2c(nc3ccccc32)c1C#N`, the GI50 is 1.64 µM (inactive) in the assay on A498; 2.12 µM (inactive) in the assay on A549; 1.22 µM (inactive) with ACHN; 1.39 µM (inactive) in the assay with CAKI-1; 2.24 µM (inactive) in the assay on DU-145; 1.87 µM (inactive) with EKVX. For the same molecule, the GI50 is 2.13 µM (inactive) with HOP-62; 0.902 µM (active) with LOX IMVI; 1.39 µM (inactive) in the assay on OVCAR-3; 1.7 µM (inactive) with OVCAR-8; 1.42 µM (inactive) with PC-3; 0.385 µM (active) in the assay with RPMI-8226. Further, the GI50 in the assay on SK-MEL-2 was 1.48 µM (inactive); in the assay on SNB-19 it was 2.77 µM (inactive); in the assay with SR, 0.311 µM (active); with SW-620, 0.355 µM (active); with T47D it was 0.839 µM (active); with TK-10, 1.52 µM (inactive). In addition, the figures for the GI50 in the assay on UACC-257 and with UACC-62 were 1.6 µM (inactive) and 1.34 µM (inactive), respectively.
For `O=S(=O)(O)c1ccc(/N=N\c2c(O)ccc3cc(Br)ccc23)cc1`, the GI50 in the assay with A498, in the assay on A549, in the assay on ACHN, in the assay with CAKI-1, in the assay on DU-145 and in the assay with EKVX was > 100 µM (inactive) each time. Besides, the GI50 in the assay on HOP-62, in the assay on LOX IMVI, with OVCAR-3, in the assay on OVCAR-8, in the assay with PC-3 and in the assay on RPMI-8226 was > 100 µM (inactive) throughout. The GI50 with SK-MEL-2, with SNB-19, in the assay on SR, in the assay with SW-620, with T47D and in the assay with TK-10 was > 100 µM (inactive) each time. Besides, the GI50 in the assay on UACC-257 and in the assay on UACC-62 was > 100 µM (inactive) in each case.
On to `NC(=O)c1ccc2c(c1)S(=O)(=O)c1ccccc1C2=O`, for which the GI50 in the assay on A498 was > 100 µM (inactive); in the assay on A549, > 100 µM (inactive); with ACHN, > 100 µM (inactive); in the assay on CAKI-1, > 100 µM (inactive); in the assay with DU-145 it was > 100 µM (inactive); with EKVX, 10 µM (inactive). Besides, the GI50 was 45 µM (inactive) in the assay on HOP-62; > 100 µM (inactive) in the assay on LOX IMVI; > 100 µM (inactive) in the assay on OVCAR-3; 33.1 µM (inactive) in the assay with OVCAR-8; > 100 µM (inactive) in the assay on PC-3; > 100 µM (inactive) in the assay with RPMI-8226. Moreover, the GI50 in the assay with SK-MEL-2, in the assay on SNB-19, in the assay on SR, in the assay on SW-620, with T47D and in the assay on TK-10 was > 100 µM (inactive) each time. Besides, the GI50 in the assay with UACC-257 and in the assay with UACC-62 was > 100 µM (inactive) throughout.
